Values joined by “and” are separate entries in the source; they are usually repeats but may differ in a detail not shown here. Equal entries are not always repeated. Toxic doses and inconclusive results are not listed. Cut-off read from the data, not from the text of the source: active = T/C of 150% or more; inactive = T/C below 125%.
Test system: L1210 leukemia ip in BDF1 mice, survival T/C
Assay: NCI In Vivo Anticancer Drug Screen. Data for tumor model L1210 Leukemia (intraperitoneal) in B6D2F1 (BDF1) mice
Details: endpoint: mean survival time, higher = longer survival
Method in brief: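 Read-out is survival time, reported as the treated-group measurement over the vehicle-control measurement.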

[1] = dose: 100.0 mg/kg/injection, schedule: Q01DX009 (ip), vehicle: Klucel (hydroxypropylcellulose) (HPC)
[2] = dose: 100.0 mg/kg/injection, schedule: Q04DX003 (ip), vehicle: Klucel (hydroxypropylcellulose) (HPC)
[3] = dose: 200.0 mg/kg/injection, schedule: Q01DX009 (ip), vehicle: Klucel (hydroxypropylcellulose) (HPC)
[4] = dose: 200.0 mg/kg/injection, schedule: Q04DX003 (ip), vehicle: Klucel (hydroxypropylcellulose) (HPC)
[5] = dose: 400.0 mg/kg/injection, schedule: Q01DX009 (ip), vehicle: Klucel (hydroxypropylcellulose) (HPC)
[6] = dose: 400.0 mg/kg/injection, schedule: Q04DX003 (ip), vehicle: Klucel (hydroxypropylcellulose) (HPC)
[7] = dose: 50.0 mg/kg/injection, schedule: Q04DX003 (ip), vehicle: saline with Tween-80
[8] = dose: 100.0 mg/kg/injection, schedule: Q04DX003 (ip), vehicle: saline with Tween-80
[9] = dose: 50.0 mg/kg/injection, schedule: Q01DX001 (ip), vehicle: saline
[10] = dose: 100.0 mg/kg/injection, schedule: Q01DX001 (ip), vehicle: saline
[11] = dose: 200.0 mg/kg/injection, schedule: Q01DX001 (ip), vehicle: saline

Measured: T/C

Cc1ccc(S(=O)(=O)NCCCCC(N)C(=O)O)cc1 (configuration not stated)
inactive: [1] 98 % of control | [2] 98 % of control | [3] 98 % of control | [4] 108 % of control | [5] 100 % of control | [6] 98 % of control

Cc1c(C#N)c2nc(C(=O)c3ccc(Br)cc3)cc(-c3ccc(Br)cc3)n2c1C
inactive: [7] 98 % of control | [8] 111 % of control | dose: 200.0 mg/kg/injection, schedule: Q04DX003 (ip), vehicle: saline with Tween-80 103 % of control | dose: 400.0 mg/kg/injection, schedule: Q04DX003 (ip), vehicle: saline with Tween-80 106 % of control

CC(C)c1ccc2c(c1)CC[C@H]1[C@](C)(C(=O)O)CCC[C@]21C
inactive: dose: 100.0 mg/kg/injection, schedule: Q01DX001 (ip), vehicle: saline with Tween-80 101 % of control | dose: 200.0 mg/kg/injection, schedule: Q01DX001 (ip), vehicle: saline with Tween-80 105 % of control | dose: 400.0 mg/kg/injection, schedule: Q01DX001 (ip), vehicle: saline with Tween-80 105 % of control

C/C=C/CC/C(=N\Nc1ccc([N+](=O)[O-])cc1[N+](=O)[O-])c1ccccc1
inactive: dose: 100.0 mg/kg/injection, schedule: Q01DX001 (ip), vehicle: Klucel (hydroxypropylcellulose) (HPC) 96 % of control | dose: 200.0 mg/kg/injection, schedule: Q01DX001 (ip), vehicle: Klucel (hydroxypropylcellulose) (HPC) 96 % of control | dose: 400.0 mg/kg/injection, schedule: Q01DX001 (ip), vehicle: Klucel (hydroxypropylcellulose) (HPC) 100 % of control

O=C(/C=C/c1ccccc1[N+](=O)[O-])c1ccccc1
inactive: [1] 97 % of control | [3] 101 % of control | [5] 98 % of control

NC(N)=N/N=C(/c1ccccc1)c1ccc(N)cc1
inactive: dose: 3.5 mg/kg/injection, schedule: Q01DX Z (oral), vehicle: carboxymethylcellulose (CMC) 102 % of control | dose: 75.0 mg/kg/injection, schedule: Q01DX Z (oral), vehicle: carboxymethylcellulose (CMC) 102 % of control | dose: 150.0 mg/kg/injection, schedule: Q01DX Z (oral), vehicle: carboxymethylcellulose (CMC) 98 % of control | dose: 300.0 mg/kg/injection, schedule: Q01DX Z (oral), vehicle: carboxymethylcellulose (CMC) 104 % of control

CN=C(c1ccc(NC(=O)c2ccc(C(=O)Nc3ccc(C(=NC)N(C)C(C)=O)cc3)cc2)cc1)N(C)C(C)=O
inactive: dose: 4.0 mg/kg/injection, schedule: Q01DX Z (ip), vehicle: carboxymethylcellulose (CMC) 98 % of control | dose: 6.0 mg/kg/injection, schedule: Q01DX Z (ip), vehicle: carboxymethylcellulose (CMC) 104 % of control | dose: 8.0 mg/kg/injection, schedule: Q01DX Z (ip), vehicle: carboxymethylcellulose (CMC) 90 % of control | dose: 10.0 mg/kg/injection, schedule: Q01DX Z (ip), vehicle: carboxymethylcellulose (CMC) 101 % of control | dose: 12.5 mg/kg/injection, schedule: Q01DX Z (ip), vehicle: carboxymethylcellulose (CMC) 110 % of control | dose: 50.0 mg/kg/injection, schedule: Q01DX Z (ip), vehicle: carboxymethylcellulose (CMC) 87 % of control

NS(=O)(=O)c1ccccc1
inactive: dose: 100.0 mg/kg/injection, schedule: Q04DX002 (ip), vehicle: saline 105 % of control | [2] 101 % of control | dose: 200.0 mg/kg/injection, schedule: Q04DX002 (ip), vehicle: saline 105 % of control | [4] 103 % of control | dose: 400.0 mg/kg/injection, schedule: Q04DX002 (ip), vehicle: saline 109 % of control | [6] 92 % of control

CCc1cc(CC)c(/C(Cl)=C/C(=O)NCC(=O)O)c(CC)c1Br
inactive: dose: 75.0 mg/kg/injection, schedule: Q04DX003 (ip), vehicle: Klucel (hydroxypropylcellulose) (HPC) 95 % of control | dose: 150.0 mg/kg/injection, schedule: Q04DX003 (ip), vehicle: Klucel (hydroxypropylcellulose) (HPC) 93 % of control | dose: 300.0 mg/kg/injection, schedule: Q04DX003 (ip), vehicle: Klucel (hydroxypropylcellulose) (HPC) 87 % of control

Cn1ncc2c(N(N)CCO)nc(-c3ccc([N+](=O)[O-])o3)nc21
inactive: [9] 108 % of control | [10] 108 % of control | [11] 104 % of control | dose: 400.0 mg/kg/injection, schedule: Q01DX001 (ip), vehicle: saline 117 % of control

O=C(OCCCCCOC(=O)c1cccc([N+](=O)[O-])c1)c1cccc([N+](=O)[O-])c1
inactive: dose: 100.0 mg/kg/injection, schedule: Q01DX001 (ip), vehicle: other 93 % of control | dose: 200.0 mg/kg/injection, schedule: Q01DX001 (ip), vehicle: other 96 % of control | dose: 400.0 mg/kg/injection, schedule: Q01DX001 (ip), vehicle: other 95 % of control

CCN(CC)CCCC#N
inactive: [9] 100 % of control | [10] 105 % of control | [11] 102 % of control

CC(=O)OC1CCC2(C)C(CCC3C2CC(=O)C2(C)C3CC(Sc3ccc(N(CCCl)CCCl)cc3)C2C(C)=O)C1 (configuration not stated)
inactive: dose: 100.0 mg/kg/injection, schedule: Q01DX001 (sc), vehicle: steriod suspending solution 108 % of control | dose: 200.0 mg/kg/injection, schedule: Q01DX001 (sc), vehicle: steriod suspending solution 103 % of control | dose: 400.0 mg/kg/injection, schedule: Q01DX001 (sc), vehicle: steriod suspending solution 105 % of control

CCOC(=O)C(C)Oc1ccc([N+](=O)[O-])cc1[N+](=O)[O-] (configuration not stated)
inactive: [2] 95 % of control | [4] 90 % of control | [6] 98 % of control

OCCN(Cc1cccnc1)Cc1ccccn1
inactive: dose: 9.38 mg/kg/injection, schedule: Q01DX001 (ip), vehicle: saline 94 % of control | dose: 18.75 mg/kg/injection, schedule: Q01DX001 (ip), vehicle: saline 100 % of control

N#CC1(Cc2ccc(OCc3ccccc3)c(OCc3ccccc3)c2)c2ccccc2C=CN1C(=O)c1ccccc1 (configuration not stated)
inactive: dose: 25.0 mg/kg/injection, schedule: Q04DX003 (ip), vehicle: saline with Tween-80 100 % of control | [7] 91 % of control | [8] 89 % of control

O=[N+]([O-])c1cc(Cl)[n+]([O-])c(Cl)c1
inactive: dose: 75.0 mg/kg/injection, schedule: Q01DX001 (ip), vehicle: carboxymethylcellulose (CMC) 101 % of control

CCCNC1(C(=O)O)CCCc2ccccc21 (configuration not stated)
inactive: [2] 100 % of control | [4] 100 % of control | [6] 102 % of control

CC(=O)OCCOc1ccc(C(C)(C)C)cc1
inactive: dose: 50.0 mg/kg/injection, schedule: Q01DX009 (ip), vehicle: Klucel (hydroxypropylcellulose) (HPC) 100 % of control | [1] 86 % of control and 92 % of control | dose: 100.0 mg/kg/injection, schedule: Q04DX002 (ip), vehicle: Klucel (hydroxypropylcellulose) (HPC) 98 % of control | [3] 111 % of control | dose: 200.0 mg/kg/injection, schedule: Q04DX002 (ip), vehicle: Klucel (hydroxypropylcellulose) (HPC) 102 % of control | dose: 225.0 mg/kg/injection, schedule: Q01DX Z (ip), vehicle: carboxymethylcellulose (CMC) 95 % of control | dose: 400.0 mg/kg/injection, schedule: Q04DX002 (ip), vehicle: Klucel (hydroxypropylcellulose) (HPC) 115 % of control | dose: 450.0 mg/kg/injection, schedule: Q01DX Z (ip), vehicle: carboxymethylcellulose (CMC) 102 % of control

CCCCNc1ccc(C(=O)O)cc1
inactive: dose: 100.0 mg/kg/injection, schedule: Q01DX009 (ip), vehicle: gum acacia 97 % of control | dose: 100.0 mg/kg/injection, schedule: Q04DX003 (ip), vehicle: gum acacia 90 % of control | dose: 200.0 mg/kg/injection, schedule: Q01DX009 (ip), vehicle: gum acacia 92 % of control | dose: 200.0 mg/kg/injection, schedule: Q04DX003 (ip), vehicle: gum acacia 91 % of control | dose: 400.0 mg/kg/injection, schedule: Q01DX009 (ip), vehicle: gum acacia 93 % of control | dose: 400.0 mg/kg/injection, schedule: Q04DX003 (ip), vehicle: gum acacia 93 % of control
